# Columns and labels:
# [1] = One-electron reduction potential by pulse radiolysis; type: physicochemical
# Experimental: One-electron reduction potentials were determined by pulse radiolysis following an established procedure.
# Lipophilicity (logD) = type: physicochemical; settings: pH 7.4
# mouse hepatocytes = assay: Hepatocyte intrinsic clearance and metabolite profile; type: in vitro ADME; settings: fexinidazole 10 µM
# Experimental: (§1) Fexinidazole was incubated with cryopreserved hepatocytes from male CD-1 mice, male Sprague Dawley rats, male beagle dogs, male cynomolgus monkeys, and from pooled white or African-American human donor samples (purchased commercially), at concentrations of 1 µM and 10 µM. […] The incubated samples were analyzed by LC-MS after extraction into acetonitrile.
# (§2) A quality control analysis of fexinidazole was performed via 1H-NMR in DMSO and LC- […]
# (§3) provided by the Swiss Tropical Institute (Basel, Switzerland).
# (§4) Reagents and solvents were of analytical grade and obtained from Sigma-Aldrich (St. Louis, […]
# (§5) Cryopreserved hepatocytes from the male CD1 mouse, lot CSI; male Sprague Dawley rat, lot LPL; male beagle dog, lot BWX; male cynomolgus monkey, lot EHH; and pooled human samples, lot MJI, were purchased from In Vitro Technologies Inc (Baltimore, Maryland, […]
# (§6) 5.4. In vitro Incubations
# (§7) On the day of the experiment a 10 mM stock solution of fexinidazole in DMSO was prepared and, within 3 hours, aliquots of this freshly prepared solution, after suitable dilution, were added to the incubation matrix, to reach fexinidazole final concentrations of 1 and 10 µM. The final percentage of DMSO was 0.01% in the incubation samples for the […]
# (§8) On the day of experiment, the cryopreserved hepatocytes were thawed following the detailed instructions provided by the supplier.
# (§9) The number of viable cells was determined using a Trypan Blue exclusion method.
# (§10) 5.4.1. Intrinsic Clearance Study […]
# (§11) µM with mouse, rat, dog, monkey and human hepatocytes (300000 cells/mL for the mouse and 1 million cells/mL for the other species) in a final incubation volume of 0.75 mL […]
# (§12) Incubations were performed in duplicate in a 48-well plate under shaking. Sampling was performed using an automatic liquid handling system (Multiprobe II EX, Packard). At 0, 1, 5, 10, 15, 20, 30, 60 and 120 minutes, 50 µL aliquots of the incubates were taken, then 80 µL of ice-cold acetonitrile and 20 µL of 1 µM warfarin in acetonitrile (internal standard) were added, and samples centrifuged at 2000 rpm for 20 min. The supernatant was analyzed by LC-MS/MS. […]
# (§13) the medium alone at t = 0 and 120 minutes.
# (§14) For the determination of phase I and phase II activity of hepatocytes, 7-ethoxycoumarin (7-EC) 1 µM, and 7-hydroxycoumarin (7-HC) 30 µM were used as positive controls and incubated under the same conditions as fexinidazole. Aliquots of incubates were taken at 0, 10, 20, 30, 60 and 120 minutes and processed as fexinidazole samples.
# (§15) 5.4.2. Metabolite Profile Study
# (§16) For metabolite profiling, fexinidazole was incubated at a concentration of 10 µM with mouse, rat, dog, monkey and human hepatocytes (300000 cells/mL for the mouse and 1 million cells/mL for the other species) in a final incubation volume of 2 mL Leibovitz L-15 […]
# (§17) Aliquots of the incubation samples were taken at t = 0, 30 and 120 minutes; the metabolism was stopped by the addition of an equal volume of cold acetonitrile and the samples centrifuged at 1500 rpm for 20 min. The supernatant was stored at -20°C until analysis. Control incubations were performed with the compound in the medium alone […]
# (§18) 5.5. Analysis of Samples for Intrinsic Clearance Determination
# (§19) The analysis of the samples for intrinsic clearance determination was performed by an LC-MS/MS method, using the following conditions:
# (§20) HPLC Equipment and Conditions
# (§21) HPLC system Agilent 1100 binary pump (Agilent, Palo Alto, USA)
# (§22) Autosampler CTC Pal (Alfatech, San Jose, USA)
# (§23) Analytical column Guard Column SB-C8 4.6 x 12.5 mm, 5 µm (Zorbax)
# (§24) Column temperature ambient
# (§25) Mobile phase A 10 mM ammonium formate pH 4.0: acetonitrile (95:5, v:v)
# (§26) Mobile phase B 10 mM ammonium formate pH 4.0: acetonitrile (5:95, v:v) […]
# (§27) Gradient conditions Step Total time (min) flow (µL/min) %A % B […]
# (§28) MS Equipment and Conditions
# (§29) Mass spectrometer API 4000 Triple Quadrupole (MDS-Sciex, Toronto, […]
# (§30) Source Turbo Ion Spray (TIS)
# (§31) Ion mode Positive for fexinidazole and 7-EC.
# (§32) Negative for 7-HC, 7-HC sulphate and 7-HC glucuronide.
# [2] = tested on: hepatocytes from African American donors; assay: as above; type: in vitro ADME, human; settings: fexinidazole 10 µM
# Experimental: as §1
# Fexinidazole sulfoxide, lot 1106-I-0170, 99.3% purity, and fexinidazole sulfone, lot 1106-I-0171, 99.9% purity, were provided by the Sponsor.
# Cryopreserved hepatocytes of five single donors, lots EHI, REL, KSE […]
# ZIJ and MRS, were purchased from In Vitro Technologies Inc (Baltimore, Maryland, USA).
# The certificates of analysis are reported in Appendix 1.
# as §4
# 7.5. In Vitro Incubations
# as §7
# The cryopreserved hepatocytes were thawed according to the supplier’s procedure and the number of viable cells was determined using the Trypan Blue exclusion method. Viabilities were 92% for lot EHI, 89% for lot REL, 82% for lot KSE, 86% for lot ZIJ and 86% for lot MRS in the intrinsic clearance study. In the metabolite profile study viabilities were 91% for lot EHI, 90% for lot REL, 85% for lot KSE, 84% for lot ZIJ and 87% for lot MRS.
# Afterwards, the same amount of viable cells for each donor were pooled and used for the incubations of fexinidazole.
# 7.5.1. Intrinsic Clearance Study […]
# as §12, with “µM with pooled human hepatocytes (1 million cells/mL) in a final incubation volume of 1 mL Leibovitz L-15 medium, at 37°C. Incubations” for “Incubations”
# The chemical stability of fexinidazole was checked by incubating the compound at 37°C in the medium alone at t = 0 and 120 minutes.
# For the determination of phase I and phase II activities of hepatocytes, 7-ethoxycoumarin (7-ETC) 1 µM, and 7-hydroxycoumarin (7-HC) 30 µM were used as positive controls and incubated under the same conditions as fexinidazole. Aliquots of incubates were taken at 0, 1, 5, 10, 15, 20, 30, 60 and 120 minutes and processed as fexinidazole samples.
# 7.5.2. Metabolite Profile Study
# For metabolite profiling, fexinidazole was incubated at a concentration of 10 µM with pooled human hepatocytes (1 million cells/mL) in a final incubation volume of 2 mL Leibovitz L-15 medium, at 37°C. Aliquots of the incubation samples were taken at t = 0, 30 and 120 minutes; the metabolism was stopped by the addition of an equal volume of cold acetonitrile and the samples centrifuged at 1100 rpm for 20 min. The supernatant was stored at -20°C until analysis. Control incubations were performed with the compound in the medium alone for 120 minutes.
# 7.6. Analysis of the Samples of Intrinsic Clearance Study
# as §19, §20
# HPLC system 1100 binary pump (Agilent, Palo Alto, USA)
# Autosampler 2777 (Waters)
# as §23, §24, §25, §26, §27
# dog hepatocytes = assay: as above; type: in vitro ADME; settings: fexinidazole 10 µM
# Experimental: as §1, §2, §3, §4, §5, §6, §7, §8, §9, §10, §11, §12, §13, §14, §15, §16, §17, §18, §19, §20, §21, §22, §23, §24, §25, §26, §27, §28, §29, §30, §31, §32
Compound,single electron redox potential [1] [mV],logD (Lipophilicity (logD)),% of total drug related material (mouse hepatocytes; 30 min) [%],% of total drug related material (mouse hepatocytes; 120 min) [%],% of total drug related material ([2]; 120 min) [%],% of total drug related material (dog hepatocytes; 30 min) [%],% of total drug related material (dog hepatocytes; 120 min) [%],% of total drug related material (mouse hepatocytes; t=0) [%],% of total drug related material ([2]; 30 min) [%],% of total drug related material ([2]; t=0) [%],% of total drug related material (dog hepatocytes; t=0) [%]
Cn1c([N+](=O)[O-])cnc1COc1ccc(S(C)(=O)=O)cc1 [Fexinidazole sulfone],−488,0.74,8,20,1,4,15,–,–,–,–
Cn1c([N+](=O)[O-])cnc1COc1ccc([S+](C)[O-])cc1 (stereo not drawn) [Fexinidazole sulfoxide],−493,0.52,92,80,98,94,84,58,98,23,50
"CSc1ccc(OCc2ncc([N+](=O)[O-])n2C)cc1 [Fexinidazole, 1-methyl-2-((p-(methylthio)phenoxy)methyl)-5-nitroimidazole]",−511,2.83,–,–,–,–,–,42,1,77,50
